The target of data set [1] is T1, proteasome subunit β5 (beta5) (Homo sapiens, UniProt P28074).
T1 construct: Lysate from the human acute lymphoblastic leukemia cell line, MOLT-4; endogenous in cells; host or cells: MOLT-4
The data set is described as follows: Proteasome active-site ELISA (ProCISE), beta5, MOLT-4 lysate. Type of data set: biochemical. The settings on record: MOLT4 lysate, human, 1 h continuous treatment, 25° C. In a few lines:
(§1)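 MOLT-4 cell lysate treated 1 h at 25 °C with compound; probe-bound subunits denatured, pulled down on streptavidin beads and detected with subunit-specific antibodies plus HRP chemiluminescence.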
Background: In an ELISA, binding on a coated surface is turned into a signal by an enzyme label.

Data set [2] has as its target T2, immunoproteasome subunit LMP7 (Homo sapiens, UniProt P28062).
T2 construct: Lysate from the human acute lymphoblastic leukemia cell line, MOLT-4; endogenous in cells; host or cells: MOLT-4
The data set is described as follows: Proteasome active-site ELISA (ProCISE), LMP7, MOLT-4 lysate. Type of data set: biochemical. The settings on record: MOLT4 lysate, 1 h continuous treatment, 25° C. The method, boiled down:
as §1

Data set [3] deals with human 20S immunoproteasome (i20S) (Homo sapiens, UniProt P28062). The data set is described as follows: 20S proteasome assay, chymotrypsin-like activity (succinyl-Leu-Leu-Val-Tyr-AMC), i20S. Type of data set: biochemical. The settings on record: LLVY substrate, 1 h continuous. An excerpt: (§2) Assay buffer consisted of TE buffer [20 mmol/L Tris (pH 8.0), 0.5 mmol/L EDTA] with (20S) or without (cell lysate) 0.03% SDS. Reactions were initiated by enzyme or lysate addition and monitored for AMC product formation at 27jC with a plate-based spectofluorometer (Tecan).

Data set [4] has as its target human constitutive 20S proteasome (c20S) (Homo sapiens, UniProt P28074). The data set can be described thus: 20S proteasome assay, chymotrypsin-like activity (succinyl-Leu-Leu-Val-Tyr-AMC), c20S. Type of data set: biochemical. The settings on record: LLVY substrate, 1 h continuous.
Source text: as §2

Data set [5] in a line: Solubility pH 7. The settings on record: pH 7, aqueous buffer.
Data set [6] is described as follows: physchem. The conditions noted are these: pH 7, aqueous buffer.

Each structure is given as a SMILES string. Values after ≈ are worked out from the molar mass of the structure shown.

As usually defined, the IC50 is the midpoint of a concentration-inhibition curve. Read a high IC50 as lower potency. What is called solubility is the concentration that dissolves in the medium under given conditions. Read a high solubility as much dissolved substance.

As to `COc1ccc(C[C@H](NC(=O)[C@@H](NC(=O)CN2CCOCC2)[C@H](C)O)C(=O)N[C@@H](Cc2ccccc2)C(=O)[C@@]2(C)CO2)cc1` [Compound C-1174], the IC50 stood at 150 nM in data set [1], 22.9 nM in data set [2], 23 nM in data set [3] and 161 nM in data set [4]. The solubility in data set [5] was found to be 1780 µg/mL (≈ 2.92 mM).

In turn, `COc1ccc(C[C@H](NC(=O)[C@H](C)NC(=O)CN2CC3CC(C2)O3)C(=O)N[C@@H](CC2CCCC2)C(=O)[C@@]2(C)CO2)cc1` [Compound C-1229, (2S)-2-((2S)-2-(2-(6-oxa-3-azabicyclo[3.1.1]heptan-3-yl)acetamido)propanamido)-N-((S)-3-cyclopentyl-1-((R)-2-methyloxiran-2-yl)-1-oxopropan-2-yl)-3-(4-methoxyphenyl)propanamide] displayed a solubility in data set [6] of 3620 µg/mL (≈ 6.2 mM).

The record behind these values is patent publication USRE47302E1 (ONYX THERAPEUTICS INC., priority 2013, dated 2019).
